In US12479927B2, “Compounds comprising cleavable linker and uses thereof” (priority 2017, dated 2025):

What follows are compounds tested on KB cancer cells (assay: cells). Settings: Homo sapiens, KB, read-out: KB cell IC50(nM).
Assay type: cell-based
Protocol: KB cancer cells were collected and seeded in 24-well plates at a density of 30,000 cells per well in 2 mL of medium, and cultured for 24 hours. Then, the serial dilutions of compound C-1 obtained in Example 108 were treated from 30 nM to 0.0096 nM, the serial dilutions of compound C-2 obtained in Example 109 were treated from 1000 nM to 0.32 nM, serial dilutions of the compound C-3 obtained in Example 110 and the compound C-7 obtained in Example 114 were treated from 25 nM to 0.0016 nM, and serial dilutions of the drug MMAF-OMe were treated from 10 nM to 0.0097 nM. The serial dilutions of compounds C-5 and C-6 obtained in Example 112 and Example 113 were treated from 100 nM to 0.0001 nM, and the serial dilutions of drug seco-DUBA were treated from 100 nM to 0.001 nM. Serial dilutions of the compounds C-4 and C-9 obtained in Example 111 and Example 116 were treated from 1000 nM to 0.001 nM, and the serial dilutions of drug CBI dimer were treated by from 10 nM to 0.00001 nM. Serial dilutions of the compound C-8 obtained in Example 115 and the drug CBI-indole were treated from 100 nM to 0.0001 nM. After 72 hours, 96 hours, or 144 hours of incubation, 0.2 mL of 3-(4,5-dimethylthiazol-2-yl)-2,5-diphenyltetrazolium bromide (MTT) dye, dissolved in PBS buffer solution (5 mg/mL), was added to each well of the plates. The formazans formed by reduction of the MTT dye by mitochondrial oxidoreductases in the living cells were dissolved in DMSO, and measured using the absorbance at 550 nm.
With COc1cc2[nH]c(C(=O)N3C[C@@H](CCl)c4c3cc(O)c3cccc(C)c43)cc2cc1OCCN(C)C [CBI-indole, reference compound] the IC50 was 0.07 nM.

Same assay, conditions: Homo sapiens, KB; MTT; 72 hours, 96 hours, or 144 hours of incubation; read-out: KB cell IC50
Cc1cccc2c(O)cc3c(c12)[C@H](CCl)CN3C(=O)c1cn2cc(NC(=O)c3ccc(O)cc3)ccc2n1 [Seco-DUBA, reference compound] was tested, and the IC50 was 0.18 nM.

Same assay, conditions: MTT; 72 hours, 96 hours, or 144 hours of incubation; read-out: KB cell IC50
With CCc1c2c(nc3ccc(OS(=O)(=O)Oc4cc(C(=O)NCCOCCOCCOCCn5cc(CCC(=O)N[C@H](CCCCN)C(=O)NCCOCCOCCNC(=O)CC[C@@H](NC(=O)c6ccc(NCc7cnc8nc(N)[nH]c(=O)c8n7)cc6)C(=O)O)nn5)ccc4O[C@@H]4O[C@H](CO)[C@H](O)[C@H](O)[C@H]4O)cc13)-c1cc3c(c(=O)n1C2)COC(=O)[C@]3(O)CC [Compound C-2] the IC50 was > 500 nM.
Compound NCCCC[C@@H](NC(=O)CCc1cn(CCOCCOCCOCCNC(=O)c2ccc(O[C@@H]3O[C@H](CO)[C@H](O)[C@H](O)[C@H]3O)c(OS(=O)(=O)Oc3cc4c(c5ccccc35)[C@H](CCl)CN4C(=O)c3cn4cc(NC(=O)c5ccc(O)cc5)ccc4n3)c2)nn1)C(=O)NCCOCCOCCNC(=O)CC[C@@H](NC(=O)c1ccc(NCc2cnc3nc(N)[nH]c(=O)c3n2)cc1)C(=O)O [Compound C-6] has an IC50 of 0.45 nM.
Work on CC(=O)Oc1cc2c(c3ccccc13)[C@H](CCl)CN2C(=O)CCCC(=O)N1C[C@@H](CCl)c2c1cc(OS(=O)(=O)Oc1cc(C(=O)NCCOCCOCCOCCn3cc(CCC(=O)N[C@H](CCCCN)C(=O)NCCOCCOCCNC(=O)CC[C@@H](NC(=O)c4ccc(NCc5cnc6nc(N)[nH]c(=O)c6n5)cc4)C(=O)O)nn3)ccc1O[C@@H]1O[C@H](CO)[C@H](O)[C@H](O)[C@H]1O)c1ccccc21 [Compound C-9] yielded an IC50 of 0.1 nM.
With NCCCC[C@@H](NC(=O)CCc1cn(CCOCCOCCOCCNC(=O)c2ccc(O[C@@H]3O[C@H](CO)[C@H](O)[C@H](O)[C@H]3O)c(OS(=O)(=O)Oc3cc4c(c5ccccc35)[C@H](CCl)CN4C(=O)CCCC(=O)N3C[C@@H](CCl)c4c3cc(O[C@@H]3O[C@H](CO)[C@H](O)[C@H](O)[C@H]3O)c3ccccc43)c2)nn1)C(=O)NCCOCCOCCNC(=O)CC[C@@H](NC(=O)c1ccc(NCc2cnc3nc(N)[nH]c(=O)c3n2)cc1)C(=O)O [Compound C-4] the IC50 was 0.02 nM.
With COc1cc2[nH]c(C(=O)N3C[C@@H](CCl)c4c3cc(OS(=O)(=O)Oc3cc(C(=O)NCCOCCOCCOCCn5cc(CCC(=O)N[C@H](CCCCN)C(=O)NCCOCCOCCNC(=O)CC[C@@H](NC(=O)c6ccc(NCc7cnc8nc(N)[nH]c(=O)c8n7)cc6)C(=O)O)nn5)ccc3O[C@@H]3O[C@H](CO)[C@H](O)[C@H](O)[C@H]3O)c3cccc(C)c43)cc2cc1OCCN(C)C [Compound C-8] the IC50 was 0.12 nM.

These compounds were tested against Escherichia coli β-galactosidase (Escherichia coli, UniProt P00722) (assay: in vitro). Settings: recombinant enzyme, pH 5.
Escherichia coli β-galactosidase, sequence (P00722 2-1024): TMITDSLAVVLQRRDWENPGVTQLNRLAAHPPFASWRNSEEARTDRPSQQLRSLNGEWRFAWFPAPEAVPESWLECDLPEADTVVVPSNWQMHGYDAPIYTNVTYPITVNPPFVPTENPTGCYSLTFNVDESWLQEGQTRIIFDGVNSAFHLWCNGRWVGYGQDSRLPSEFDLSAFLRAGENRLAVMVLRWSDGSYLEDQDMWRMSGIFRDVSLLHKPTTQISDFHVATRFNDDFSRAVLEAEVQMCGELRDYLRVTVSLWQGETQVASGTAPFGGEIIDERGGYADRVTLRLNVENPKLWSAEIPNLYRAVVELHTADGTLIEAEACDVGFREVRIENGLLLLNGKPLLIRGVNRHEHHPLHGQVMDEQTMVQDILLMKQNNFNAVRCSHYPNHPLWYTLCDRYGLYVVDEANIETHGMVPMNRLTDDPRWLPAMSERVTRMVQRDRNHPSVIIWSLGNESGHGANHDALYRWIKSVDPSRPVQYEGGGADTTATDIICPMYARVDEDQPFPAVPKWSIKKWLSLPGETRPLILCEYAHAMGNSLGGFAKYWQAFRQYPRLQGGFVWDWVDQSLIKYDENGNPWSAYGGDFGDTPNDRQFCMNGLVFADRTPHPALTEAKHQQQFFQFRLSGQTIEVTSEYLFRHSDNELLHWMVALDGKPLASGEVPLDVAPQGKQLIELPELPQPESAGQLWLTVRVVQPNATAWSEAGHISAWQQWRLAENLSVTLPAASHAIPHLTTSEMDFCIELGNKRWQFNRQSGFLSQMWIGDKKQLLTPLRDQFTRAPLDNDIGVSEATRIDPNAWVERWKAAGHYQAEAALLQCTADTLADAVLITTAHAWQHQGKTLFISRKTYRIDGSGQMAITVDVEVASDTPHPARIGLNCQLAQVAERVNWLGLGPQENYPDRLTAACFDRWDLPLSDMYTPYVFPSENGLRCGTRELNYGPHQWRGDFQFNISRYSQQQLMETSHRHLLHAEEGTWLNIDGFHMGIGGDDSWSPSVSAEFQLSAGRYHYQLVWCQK
Protocol: Method 1. Escherichia coli β-galactosidase
MPS used as a standard material was dissolved in PBS buffer solution to make 500 uM solution. […] This was followed by the addition of enzyme solution (14 μL of 1 mg/mL). When comparing with human β-galactosidase, 21 μL of enzyme solution (1 mg/mL) was added to achieve the same molar concentration, and the compound of the present invention and MPS each having an amount of 140 μL and […] of the buffer solution (pH 7.4) were mixed. The resulting reaction mixture was incubated at 37° C. Escherichia coli β-galactosidase enzyme (Sigma G4155) was used in the reaction mixture. The enzyme reaction solution was aliquoted at 0 min before the reaction and at a predetermined time after the reaction, respectively, wherein each aliquot was 70 μL. Then, the remaining compound of the present invention or MPS, and a material liberated by the enzyme reaction were quantitatively analyzed by HPLC.
Compound CCc1c2c(nc3ccc(OS(=O)(=O)Oc4cc(C(=O)NCCOCCOCCOCCN=[N+]=[N-])ccc4O[C@@H]4O[C@H](CO)[C@H](O)[C@H](O)[C@H]4O)cc13)-c1cc3c(c(=O)n1C2)COC(=O)[C@]3(O)CC [Compound B-2] has a half-life at 100 μM of 5.75 min.

Same assay, conditions: recombinant enzyme, pH 7.4
Compound CC(C)(C)OC(=O)NC(Cc1ccc(OS(=O)(=O)Oc2cc(C(=O)NCCOCCOCCOCCN=[N+]=[N-])ccc2O[C@@H]2O[C@H](CO)[C@H](O)[C@H](O)[C@H]2O)cc1)C(=O)O (stereo partly drawn) [Compound A-2] has a half-life at 100 μM of 3.71 ± 0.22 min.
In the case of O=C(Cc1cccnc1)OCc1ccc(OS(=O)(=O)Oc2ccccc2O[C@@H]2O[C@H](CO)[C@H](O)[C@H](O)[C@H]2O)cc1 [Compound A-10], the half-life at 100 μM is reported as < 5 min.
CC(C)(C)OC(=O)NC(Cc1ccc(OS(=O)(=O)Oc2cc(CCC(=O)NCCOCCOCCOCCN=[N+]=[N-])ccc2OC2O[C@H](CO)[C@H](O)[C@H](O)[C@H]2O)cc1)C(=O)O (stereo partly drawn) [Compound A-6] showed a half-life at 100 μM of 4.6 ± 1.72 min.
For CC(C)(C)OC(=O)NCCN(CC(=O)O)C(=O)Cn1cnc2c(OCc3ccc(OS(=O)(=O)Oc4ccccc4OC4O[C@H](CO)[C@H](O)[C@H](O)[C@H]4O)cc3)nc(N)nc21 (stereo partly drawn) [Compound A-18], the half-life at 100 μM was < 5 min.
For Nc1nc(OCc2ccc(OS(=O)(=O)Oc3ccccc3OC3O[C@H](CO)[C@H](O)[C@H](O)[C@H]3O)cc2)c2ncn([C@@H]3O[C@H](CO)C(O)[C@@H]3O)c2n1 (stereo partly drawn) [Compound A-4], the half-life at 100 μM was < 5 min.
COc1ccc(/C=C\c2cc(OC)c(OC)c(OC)c2)cc1OS(=O)(=O)Oc1cc(C(=O)NCCOCCOCCOCCN=[N+]=[N-])ccc1O[C@@H]1O[C@H](CO)[C@H](O)[C@H](O)[C@H]1O [Compound B-7] was tested, and the half-life at 100 μM was < 5 min.
In the case of Cc1cn([C@H]2CC(O)[C@@H](CO)O2)c(=O)nc1OCc1ccc(OS(=O)(=O)Oc2ccccc2O[C@@H]2O[C@H](CO)[C@H](O)[C@H](O)[C@H]2O)cc1 (stereo partly drawn) [Compound A-13], the half-life at 100 μM is reported as < 5 min.
CC/C(=C(\c1ccccc1)c1ccc(OCC[N+](C)(C)Cc2c(OC)cc(OS(=O)(=O)Oc3cc(C(=O)NCCOCCOCCOCCN=[N+]=[N-])ccc3OC3O[C@H](CO)[C@H](O)[C@H](O)[C@H]3O)cc2OC)cc1)c1ccccc1 (stereo partly drawn) [Compound B-11] was tested, and the half-life at 100 μM was < 5 min.
With CC(OCN(CCN(C)C)C(=O)OCc1ccc(OS(=O)(=O)Oc2ccccc2OC2O[C@H](CO)[C@H](O)[C@H](O)[C@H]2O)cc1)c1ccccc1 (stereo partly drawn) [Compound A-17] the half-life at 100 μM was < 1 min.
For C[C@]12CC[C@@H]3c4ccc(OS(=O)(=O)Oc5cc(C(=O)NCCOCCOCCOCCN=[N+]=[N-])ccc5O[C@@H]5O[C@H](CO)[C@H](O)[C@H](O)[C@H]5O)cc4CC[C@H]3[C@@H]1CC[C@@H]2O [Compound B-6], the half-life at 100 μM was < 5 min.
For CSCC[C@H](NC(=O)[C@H](Cc1ccccc1)NC(=O)CNC(=O)CNC(=O)[C@@H](N)Cc1ccc(OS(=O)(=O)Oc2ccccc2OC2O[C@H](CO)[C@H](O)[C@H](O)[C@H]2O)cc1)C(=O)O (stereo partly drawn) [Compound B-9], the half-life at 100 μM was < 5 min.
CC(C)(C)OC(=O)NC(Cc1ccc(OS(=O)(=O)Oc2cc3ccccc3cc2O[C@@H]2O[C@H](CO)[C@H](O)[C@H](O)[C@H]2O)cc1)C(=O)O (stereo partly drawn) [Compound A-12] was tested, and the half-life at 100 μM was < 5 min.
CCc1c2c(nc3ccc(OS(=O)(=O)Oc4cc(C(=O)NCCOCCOCCOCCN=[N+]=[N-])ccc4O[C@@H]4O[C@H](CO)[C@H](O)[C@H](O)[C@H]4O)cc13)-c1cc3c(c(=O)n1C2)COC(=O)[C@]3(O)CC [Compound B-2] gave a half-life at 100 μM of 0.28 min.
In the case of O=C(OCCc1cccnc1)OCc1ccc(OS(=O)(=O)Oc2ccccc2O[C@@H]2O[C@H](CO)[C@H](O)[C@H](O)[C@H]2O)cc1 [Compound A-9], the half-life at 100 μM is reported as < 5 min.
CCC(C)[C@H]([C@H](CC(=O)N1CCC[C@@H]1[C@@H](OC)[C@H](C)C(=O)NC(Cc1ccccc1)C(=O)O)OC)N(C)C(=O)[C@H](NC(=O)[C@@H](C(C)C)N(C)C(=O)OCc1ccc(OS(=O)(=O)Oc2cc(C(=O)NCCOCCOCCOCCN=[N+]=[N-])ccc2O[C@H]2O[C@H](CO)[C@H](O)[C@H](O)[C@H]2O)cc1)C(C)C (stereo partly drawn) [Compound B-3] was tested, and the half-life at 100 μM was < 10 min.

The compounds below were run against T1, Human β-galactosidase (Homo sapiens, UniProt P16278) (assay: Enzymatic cleavage assay, Method 2). Settings: recombinant enzyme, 100 μM, pH 5.
T1 construct: purchased R&D 6464-GH-020
T1 sequence (P16278 29-677): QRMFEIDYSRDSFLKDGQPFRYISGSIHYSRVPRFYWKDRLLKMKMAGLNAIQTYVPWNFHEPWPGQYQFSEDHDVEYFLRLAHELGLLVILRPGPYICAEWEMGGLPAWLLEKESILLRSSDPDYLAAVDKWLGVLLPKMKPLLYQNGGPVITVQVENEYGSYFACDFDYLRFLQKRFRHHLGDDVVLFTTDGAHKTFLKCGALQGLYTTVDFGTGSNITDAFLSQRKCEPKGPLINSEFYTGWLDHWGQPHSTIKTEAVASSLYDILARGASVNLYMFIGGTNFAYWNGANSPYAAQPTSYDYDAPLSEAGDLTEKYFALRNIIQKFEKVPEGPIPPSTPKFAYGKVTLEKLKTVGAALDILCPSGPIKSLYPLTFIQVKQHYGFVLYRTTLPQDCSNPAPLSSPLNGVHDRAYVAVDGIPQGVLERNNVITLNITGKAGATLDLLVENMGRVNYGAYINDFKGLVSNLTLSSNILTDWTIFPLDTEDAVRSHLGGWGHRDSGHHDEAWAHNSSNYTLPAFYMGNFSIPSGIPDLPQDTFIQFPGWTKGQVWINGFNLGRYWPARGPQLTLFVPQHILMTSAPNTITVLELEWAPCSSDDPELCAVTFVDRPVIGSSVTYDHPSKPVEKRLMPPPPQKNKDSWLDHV
Assay type: biochemical
Protocol: Method 2) Human β-galactosidase
MPS used as a standard material was prepared as a solution to have a concentration of 500 μM in PBS buffer solution. […] Then, 140 μL of 0.1 mg/mL enzyme solution was added thereto, thereby preparing an enzyme reaction solution in a total amount of 700 μL. The reaction mixture was incubated at 37° C. Human β-galactosidase enzyme (R&D 6464-GH-020) was used in the reaction mixture.
In the case of CCc1c2c(nc3ccc(OS(=O)(=O)Oc4cc(C(=O)NCCOCCOCCOCCN=[N+]=[N-])ccc4O[C@@H]4O[C@H](CO)[C@H](O)[C@H](O)[C@H]4O)cc13)-c1cc3c(c(=O)n1C2)COC(=O)[C@]3(O)CC [Compound B-2], the “Q part release t1/2(min)” value is reported as 39.41 min.

Same assay, conditions: recombinant enzyme, 100 μM, pH 7.4
CCc1c2c(nc3ccc(OS(=O)(=O)Oc4cc(C(=O)NCCOCCOCCOCCN=[N+]=[N-])ccc4O[C@@H]4O[C@H](CO)[C@H](O)[C@H](O)[C@H]4O)cc13)-c1cc3c(c(=O)n1C2)COC(=O)[C@]3(O)CC [Compound B-2] was tested, and the “Q part release t1/2(min)” value was 112.2 min.

Same assay, conditions: recombinant enzyme, Method 2, pH 7.4, 37° C., HPLC, read-out: TG release t1/2(min)
For CC(C)(C)OC(=O)NC(Cc1ccc(OS(=O)(=O)Oc2ccccc2O[C@@H]2O[C@H](C(=O)O)[C@@H](O)[C@H](O)[C@H]2O)cc1)C(=O)O (stereo partly drawn) [Compound A-3], the half-life at 100 μM was 10.7 min.

Same assay, conditions: recombinant enzyme, pH 5
CCc1c2c(nc3ccc(OS(=O)(=O)Oc4cc(C(=O)NCCOCCOCCOCCN=[N+]=[N-])ccc4O[C@@H]4O[C@H](CO)[C@H](O)[C@H](O)[C@H]4O)cc13)-c1cc3c(c(=O)n1C2)COC(=O)[C@]3(O)CC [Compound B-2] was tested, and the half-life at 100 μM was 5.33 min.
